This is an account of results in patent US6677368B2, “4-aryl substituted indolinones” (Sugen, Inc., priority 2000, dated 2004).

What all share (type): biochemical
For test [1], the target named is T1, SRC (Homo sapiens, UniProt P12931).
T1 construct: purchased UBI 14-117
The test can be described thus: Src transphosphorylation assay. The following applies: recombinant human Src, poly(Glu-Tyr) substrate. The method, then: Src Transphosphorylation Assay
This assay is used to screen for inhibitors of the tyrosine kinase Src.
1. Coating buffer: PBS containing sodium azide (0.2 mg/ml).
3. Wash buffer: PBS containing 0.05% v/v Tween 20 (PBS-TWEEN)
5. ATP (40 [M)+MgCl2 (80 mM) in distilled water.
6. MgCl2 (80 mM) in distilled water (for no ATP blanks).
7. Test compounds, 10 mM in DMSO.
8. Assay Buffer: 100 mM HEPES, pH 7.4, containing 2 mM DTT, 0.2 mM sodium orthovanadate and 0.2 mgs/ml BSA.
9. Partially purified recombinant human Src (UBI (14-117)
10. Anti-phosphotyrosine (SUGEN rabbit polyclonal anti-PY).
11. HRP-linked goat anti-rabbit Ig (Biosource International #6430)
12. HRP substrate ABTS or Pierce Peroxidase substrate.
13. Corning ELISA plates.
1. Coat plates with 100 μl of 20 μg/ml poly(Glu-Tyr) (Sigma Cat. No.P0275) containing 0.01% sodium azide. Hold overnight at 4° C.
2. Block with 1% BSA at 100 μl/well for one hour at room temperature.
3. Plate test compounds (10 mM in DMSO) at 2 ul/well on a Costar plate ready for dilution with dH2O and plating to reaction plates.
4. Dilute Src kinase 1:10,000 in Reaction Buffer, for 5 plates prepare 25 ml as follows: 2.5 mls 1M HEPES pH7.4 (stored sterile at 4° C.), 21.85 ml distilled water, 0.1 ml 5% BSA, 0.5 ml 10 mM sodium orthovanadate (stored sterile at 4° C.), 50 μl 1.0M DTT (stored frozen at […]), and 2.5 μl Src Kinase (stored frozen at −80° C.).
5. Add 48 μl of distilled water to the 2 ∥l of each compound in the dilution plate then add 25 μl/well of this to the reaction plate.
6. Add 50 μl of […] to each reaction buffer well and then 25 μl ATP-MgCl2/well (MgCl2 only to no ATP blanks). Incubate at room temperature for 15 minutes on plate shaker. Stop reaction by adding 25 μl of 0.5M EDTA to each well.
7. Wash 4× with PBS-TWEEN.
8. […] Incubate with continuous shaking at room temperature for one hour.
9. Wash plates 4× with PBS-TWEEN.
10. Add 100 μl HPP-linked Ig (1:5,000) in PBS-TWEEN containing 0.5% BSA, 0.025% Non-fat milk powder, 100 μM sodium orthovanadate. Incubate with shaking at room temperature for one hour.
11. Wash plates 4× with PBS-TWEEN and then once with PBS.
12. Develop plate using ABTS or other peroxidase substrate.

Test [2] addresses T2, MET (Homo sapiens, UniProt P08581).
T2 construct: Purified GST fusion protein containing the Met kinase domain, SUGEN, Inc
The experiment in a line: MET transphosphorylation assay. The following applies: GST fusion protein containing the Met kinase domain, poly(glu-tyr) substrate. As for the experimental part:
MET TRANSPHOSPHORYLATION ASSAY
This assay is used to measure phosphotyrosine levels on a poly(glutamic acid:tyrosine, 4:1) substrate as a means for identifying agonists/antagonists of met transphosphorylation of the substrate.
1. Corning 96-well ELISA plates, Corning Catalog #25805-96.
2. Poly(glu-tyr), 4:1, Sigma, Cat. No; P 0275.
5. Blocking Buffer: Dissolve 25 g Bovine Serum Albumin, Sigma Cat. No A-7888, in 500 ml PBS, filter through a […] filter.
6. Purified GST fusion protein containing the Met kinase domain, SUGEN, Inc.
8. 10% aqueous (MilliQue H2O) DMSO.
9. 10 mM aqueous (dH2O) Adenosine-5′-triphosphate, Sigma Cat. No. A-5394.
10. 2×Kinase Dilution Buffer: for 100 ml, mix 10 mL 1M HEPES at pH 7.5 with 0.4 mL 5% BSA/PBS, 0.2 mL 0.1 M sodium orthovanadate and 1 mL 5M sodium chloride in 88.4 mL dH2O.
11. 4×ATP Reaction Mixture: for 10 mL, mix 0.4 mL 1 M manganese chloride and 0.02 mL 0.1 M ATP in 9.56 mL dH2O.
12. 4×Negative Controls Mixture: for 10 mL, mix 0.4 mL 1 M manganese chloride in 9.6 mL dH2O.
13. NUNC 96-well V bottom polypropylene plates, Applied Scientific Catalog #S-72092
15. Antibody Dilution Buffer: for 100 mL, mix 10 mL 5% BSA/PBS, 0.5 mL 5% Carnation® Instant Milk in PBS and 0.1 mL 0.1 M sodium orthovanadate in 88.4 mL TBST.
16. Rabbit polyclonal antophosphotyrosine antibody, SUGEN, Inc.
17. Goat anti-rabbit horseradish peroxidase conjugated antibody, Biosource, Inc.
18. ABTS Solution: for 1 L, mix 19.21 g citric acid, 35.49 g Na2HPO4 and 500 mg ABTS with sufficient dH2O to make 1 L.
19. ABTS/H2O2: mix 15 mL ABST solution with 2μL H2O2 five minutes before use.
1. Coat ELISA plates with 2 μg Poly(Glu-Tyr) in 100 μL PBS, hold overnight at 4° C.
2. Block plate with 150 μL of 5% BSA/PBS for 60 min.
3. Wash plate twice with PBS then once with 50 mM Hepes buffer pH 7.4.
4. Add 50 μl of the diluted kinase to all wells. (Purified kinase is diluted with Kinase Dilution Buffer. Final concentration should be 10 ng/well.)
5. Add 25 μL of the test compound (in 4% DMSO) or DMSO alone (4% in dH2O) for controls to plate.
6. Incubate the kinase/compound mixture for 15 minutes.
7. Add 25 μL of 40 mM MnCl2 to the negative control wells.
8. Add 25 μL ATP/MnCl2 mixture to the all other wells (except the negative controls). Incubate for 5 min.
9. Add 25 μL 500 mM EDTA to stop reaction.
10. Wash plate 3× with TBST.
11. Add 100 μL rabbit polyclonal anti-Ptyr diluted 1:10,000 in Antibody Dilution Buffer to each well. Incubate, with shaking, at room temperature for one hour.
12. Wash plate 3× with TBST.
13. Dilute Biosource HRP conjugated anti-rabbit antibody 1:6,000 in Antibody Dilution buffer. Add 100 μL per well and incubate at room temperature, with shaking, for one hour.
14. Wash plate 1× with PBS.
15. Add 100 μl of ABTS/H2O2 solution to each well.
16. If necessary, stop the development reaction with the addition of 100 μl of 0.2M HCl per well.
17. Read plate on Dynatech MR7000 ELISA reader with the test filter at 410 nM and the reference filter at 630 nM.

The target in test [3] is FGFR3 (Homo sapiens, UniProt P22607). The experiment in a line: FGFR3 kinase inhibition.
For test [4], the target named is P38 (Homo sapiens, UniProt Q16539). The experiment in a line: P38 kinase inhibition.
Sequence of P38 (Q16539 whole entry): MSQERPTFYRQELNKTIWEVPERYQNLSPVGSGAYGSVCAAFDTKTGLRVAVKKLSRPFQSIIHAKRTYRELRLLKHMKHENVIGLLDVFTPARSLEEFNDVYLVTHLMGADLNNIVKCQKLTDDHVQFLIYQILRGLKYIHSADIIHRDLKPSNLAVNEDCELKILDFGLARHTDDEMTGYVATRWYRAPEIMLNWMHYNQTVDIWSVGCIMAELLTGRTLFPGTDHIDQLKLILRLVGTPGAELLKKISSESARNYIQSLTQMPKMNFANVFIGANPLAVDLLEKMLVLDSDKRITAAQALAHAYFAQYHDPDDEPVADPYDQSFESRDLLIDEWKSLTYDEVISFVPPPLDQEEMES

T1 sequence (P12931 whole entry): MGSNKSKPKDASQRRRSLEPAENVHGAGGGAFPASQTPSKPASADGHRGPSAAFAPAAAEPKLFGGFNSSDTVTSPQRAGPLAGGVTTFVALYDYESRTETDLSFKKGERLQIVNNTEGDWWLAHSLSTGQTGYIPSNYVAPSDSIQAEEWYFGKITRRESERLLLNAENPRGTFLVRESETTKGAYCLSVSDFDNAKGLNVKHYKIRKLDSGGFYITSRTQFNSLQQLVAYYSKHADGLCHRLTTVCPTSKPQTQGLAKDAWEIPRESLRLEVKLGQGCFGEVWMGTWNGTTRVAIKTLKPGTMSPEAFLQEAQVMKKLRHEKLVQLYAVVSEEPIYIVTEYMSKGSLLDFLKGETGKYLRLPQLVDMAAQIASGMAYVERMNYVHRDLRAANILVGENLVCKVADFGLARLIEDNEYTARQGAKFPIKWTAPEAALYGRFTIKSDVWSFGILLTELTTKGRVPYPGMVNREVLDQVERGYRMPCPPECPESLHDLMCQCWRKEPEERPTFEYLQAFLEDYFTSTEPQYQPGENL
Sequence of FGFR3 (P22607 23-806, species assumed): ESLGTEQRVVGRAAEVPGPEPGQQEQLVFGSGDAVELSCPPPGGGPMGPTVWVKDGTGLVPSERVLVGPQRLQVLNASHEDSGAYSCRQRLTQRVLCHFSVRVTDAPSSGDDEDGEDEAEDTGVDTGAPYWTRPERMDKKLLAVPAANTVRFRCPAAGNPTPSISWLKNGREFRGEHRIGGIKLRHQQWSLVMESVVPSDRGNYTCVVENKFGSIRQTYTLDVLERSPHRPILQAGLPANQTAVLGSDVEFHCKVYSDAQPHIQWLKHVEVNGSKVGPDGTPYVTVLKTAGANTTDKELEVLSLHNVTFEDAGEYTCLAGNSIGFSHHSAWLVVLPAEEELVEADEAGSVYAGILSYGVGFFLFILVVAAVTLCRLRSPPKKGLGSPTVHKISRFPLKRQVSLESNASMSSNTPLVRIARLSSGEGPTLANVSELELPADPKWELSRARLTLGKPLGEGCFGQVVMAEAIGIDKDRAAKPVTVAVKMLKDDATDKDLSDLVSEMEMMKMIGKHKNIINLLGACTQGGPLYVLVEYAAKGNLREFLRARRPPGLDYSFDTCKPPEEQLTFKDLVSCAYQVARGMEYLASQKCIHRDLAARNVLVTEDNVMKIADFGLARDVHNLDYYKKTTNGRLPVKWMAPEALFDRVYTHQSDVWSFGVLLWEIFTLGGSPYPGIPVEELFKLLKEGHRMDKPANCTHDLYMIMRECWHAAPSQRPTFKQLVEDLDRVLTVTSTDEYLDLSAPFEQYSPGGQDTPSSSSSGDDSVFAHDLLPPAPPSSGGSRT
T2 sequence (P08581 1078-1345 limits assumed): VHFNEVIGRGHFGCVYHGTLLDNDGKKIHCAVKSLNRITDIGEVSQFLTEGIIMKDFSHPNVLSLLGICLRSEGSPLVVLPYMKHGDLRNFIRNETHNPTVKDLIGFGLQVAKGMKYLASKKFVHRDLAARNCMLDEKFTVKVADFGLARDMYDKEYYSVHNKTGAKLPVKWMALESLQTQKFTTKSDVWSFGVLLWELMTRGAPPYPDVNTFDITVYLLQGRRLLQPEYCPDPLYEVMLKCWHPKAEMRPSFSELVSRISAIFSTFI

`COc1ccc(-c2cccc3c2/C(=C/c2[nH]c(C)c(C(=O)NCCN4CCCC4)c2C)C(=O)N3)cc1` [Example 38, 5-[4-(4-Methoxy-phenyl)-2-oxo-1,2-dihydro-indol-3-ylidenemethyl]-2,4-dimethyl-1H-pyrrole-3-carboxylic Acid (2-Pyrrolidin-1-yl-ethyl)-amide]: the IC50 in test [1] is 1250 nM; in test [2] it was 110 nM; in test [3], 46 nM; in test [4] it was > 10000 nM.

As for `Cc1cc(C(=O)N2CC[C@H](N(C)C)C2)c(/C=C2\C(=O)Nc3cccc(-c4cccc(Cl)c4)c32)[nH]1` [Example 32, 4-(3-Chloro-phenyl)-3-[3-((S)-3-dimethylamino-pyrrolidine-1-carbonyl)-5-methyl-1H-pyrrol-2-ylmethylene]-1,3-dihydro-indol-2-one], the IC50 in test [1] was 5370 nM; in test [2], 120 nM; in test [3], 1770 nM; in test [4] it was > 10000 nM.

For the compound `CCN(CC)CCNC(=O)c1c(C)[nH]c(/C=C2\C(=O)Nc3cccc(-c4cccc(Cl)c4)c32)c1C` [Example 29, 5-[4-(3-Chloro-phenyl)-2-oxo-1,2-dihydro-indol-3-ylidenemethyl]-2,4-dimethyl-1H-pyrrole-3-carboxylic Acid (2-Diethylamino-ethyl)-amide], the IC50 in test [1] was 1250 nM; in test [2], 65 nM; in test [3], 320 nM; in test [4], > 10000 nM.

Consider `Cc1cc(C(=O)N2C[C@@H](C)N[C@@H](C)C2)c(/C=C2\C(=O)Nc3cccc(-c4ccc(Cl)cc4)c32)[nH]1` [Example 27], for which the concentration for half-maximal inhibition (IC50) in test [1] was 13900 nM; in test [2], 150 nM; in test [3], 610 nM; in test [4] it was > 10000 nM.

With `Cc1[nH]c(/C=C2\C(=O)Nc3cccc(-c4ccc(Br)cc4)c32)c(C)c1C(=O)N1C[C@@H](C)N[C@@H](C)C1` [Example 57, 4-(4-Bromo-phenyl)-3-[4-[(cis)-3,5-dimethyl-piperazine-1-carbonyl)-3,5-dimethyl-1H-pyrrol-2-ylmethylene]-1,3-dihydro-indol-2-one], the IC50 in test [1] is 4740 nM; in test [2], 420 nM; in test [3], 87 nM; in test [4], > 10000 nM.

As to `Cc1[nH]c(/C=C2\C(=O)Nc3cccc(-c4ccc(Br)cc4)c32)c(C)c1C(=O)N1CCN(C)CC1` [Example 53], the IC50 was 13500 nM in test [1], 290 nM in test [2], 680 nM in test [3] and > 10000 nM in test [4].

Regarding `CCN(CC)CCNC(=O)c1c[nH]c(/C=C2\C(=O)Nc3cccc(-c4ccc(Br)cc4)c32)c1C` [Example 61, 5-[4-(4-Bromo-phenyl)-2-oxo-1,2-dihydro-indol-3-ylidenemethyl]-4-methyl-1H-pyrrole-3-carboxylic Acid (2-Diethylamino-ethyl)-amide], the half-inhibitory concentration (IC50) is 1720 nM in test [1], 110 nM in test [2], < 9.1 nM in test [3] and 6300 nM in test [4].

As to `Cc1cc(C(=O)N2CC[C@@H](N(C)C)C2)c(/C=C2\C(=O)Nc3cccc(-c4ccc(Cl)cc4)c32)[nH]1` [Example 25, 4-(4-Chloro-phenyl)-3-[3-((R)-3-dimethylamino-pyrrolidine-1-carbonyl)-5-methyl-1H-pyrrol-2-ylmethylene]-1,3-dihydro-indol-2-one], the IC50 is 9860 nM in test [1], 110 nM in test [2], 340 nM in test [3] and > 10000 nM in test [4].

Consider `COc1cccc(-c2cccc3c2/C(=C/c2[nH]c(C)c(C(=O)NCCn4ccnn4)c2C)C(=O)N3)c1` [Example 48, 5-[4-(3-Methoxy-phenyl)-2-oxo-1,2-dihydro-indol-3-ylidenemethyl]-2,4-dimethyl-1H-pyrrole-3-carboxylic Acid (2-[1,2,3]Triazol-1-yl-ethyl)-amide], for which the IC50 in test [1] was 3800 nM; in test [2] it was 1060 nM; in test [3], 190 nM; in test [4], > 10000 nM.

`Cc1cc(C(=O)NCCN2CCCC2)c(/C=C2\C(=O)Nc3cccc(-c4ccc(Br)cc4)c32)[nH]1` [Example 58, 2-[4-(4-Bromo-phenyl)-2-oxo-1,2-dihydro-indol-3-ylidenemethyl]-5-methyl-1H-pyrrole-3-carboxylic Acid (2-Pyrrolidin-1-yl-ethyl)-amide]: the IC50 is 4810 nM in test [1], 73 nM in test [2], 220 nM in test [3] and > 10000 nM in test [4].

With `COc1cccc(-c2cccc3c2/C(=C/c2[nH]c(C)c(C(=O)NCCN(C(C)C)C(C)C)c2C)C(=O)N3)c1` [Example 52, 5-[4-(3-Methoxy-phenyl)-2-oxo-1,2-dihydro-indol-3-ylidenemethyl]-2,4-dimethyl-1H-pyrrole-3-carboxylic Acid (2-Diisopropylamino-ethyl)-amide], the IC50 in test [1] was 540 nM; in test [2], 92 nM; in test [3], < 9.1 nM; in test [4], > 10000 nM.

Regarding `Cc1[nH]c(/C=C2\C(=O)Nc3cccc(-c4ccc(Cl)cc4)c32)c(C)c1C(=O)NCCN1CCCC1` [Example 22, 5-[4-(4-Chloro-phenyl)-2-oxo-1,2-dihydro-indol-3-ylidenemethyl]-2,4-dimethyl-1H-pyrrole-3-carboxylic Acid (2-Pyrrolidin-1-yl-ethyl)-amide], the IC50 in test [1] stood at 1580 nM; in test [2], 140 nM; in test [3], 74 nM; in test [4], 13100 nM.
